From the SangsterLogP compilation

Legend:
[1] = method code SF-AS, from DOI: 10.1002/qsar.19880070104; conditions: pH 7.4

Compound `Cc1cccc(C)c1OC(=O)c1ccc(CN2CCCCC2)cc1` has a logP of 3.5.
For `Cc1cccc(C)c1OC(=O)c1ccc(CN2CCOCC2)cc1`, the logD [1] was 3.92.
Work on `Cc1cccc(C)c1OC(=O)c1ccccc1CN1CCCC1` yielded a logP of 3.09.
In the case of `Cc1cccc(C)c1OCc1cccc(CN2CCOCC2)c1`, the logD [1] was 3.74.
Compound `CCN(CC)Cc1cccc(C(=O)Oc2c(C)cccc2C)c1` has a logP of 2.99.
`Cc1cccc(C)c1OC(=O)OCc1ccc(CN2CCOCC2)cc1` gave a logD [1] of 3.34.
Work on `Cc1cccc(C)c1OC(=O)OCc1cccc(CN2CCOCC2)c1` yielded a logD [1] of 3.47.
Work on `Cc1cccc(C)c1OC(=O)c1cccc(CN2CCOCC2)c1` yielded a logD [1] of 3.91.
In the case of `Cc1cccc(C)c1OC(=O)c1cccc(CN2CCCC2)c1`, the logP was 3.18.
In the case of `Cc1cccc(C)c1OC(=O)c1ccccc1CN1CCOCC1`, the logD [1] was 3.48.
With `Cc1cccc(C)c1OC(=O)NCc1ccc(CN2CCOCC2)cc1` the logD [1] was 2.7.
In the case of `Cc1cccc(C)c1OC(=O)NCc1ccccc1CN1CCOCC1`, the logD [1] was 3.54.
For `Cc1cccc(C)c1OCc1ccccc1CN1CCOCC1`, the logP was 4.16.
Work on `Cc1cccc(C)c1OC(=O)NCc1cccc(CN2CCOCC2)c1` yielded a logD [1] of 2.91.
For `Cc1cccc(C)c1NC(=O)OCc1ccc(CN2CCOCC2)cc1`, the logD [1] was 2.2.
For `Cc1cccc(C)c1NC(=O)OCc1ccccc1CN1CCOCC1`, the logD [1] was 2.8.
Work on `Cc1cccc(C)c1NC(=O)c1ccccc1CN1CCOCC1` yielded a logD [1] of 2.46.
Compound `Cc1cccc(C)c1NC(=O)c1ccc(CN2CCOCC2)cc1` has a logP of 1.76.
For `Cc1cccc(C)c1OC(=O)c1ccc(CN2CCCC2)cc1`, the logP was 3.2.
`Cc1cccc(C)c1OCc1ccc(CN2CCOCC2)cc1` showed a logD [1] of 3.76.
Work on `Cc1cccc(C)c1NC(=O)OCc1cccc(CN2CCOCC2)c1` yielded a logD [1] of 1.85.
